# Assay results reported in the supplement of paper PMC9663587.
# What was measured:
# [1] = compound: CC(=O)O[C@H]1C(=O)[C@@]2(C)[C@H]([C@H](OC(=O)c3ccccc3)[C@]3(O)C[C@H](OC(=O)[C@H](O)[C@@H](NC(=O)c4ccccc4)c4ccccc4)C(C)=C1C3(C)C)[C@]1(OC(C)=O)CO[C@@H]1C[C@@H]2O [Paclitaxel]
# [2] = compound: T1, CC(=O)c1c(C)c2cnc(Nc3ccc(N4CCN(CCOCCOCCOCCNC(=O)COc5cccc6c5C(=O)N(C5CCC(=O)NC5=O)C6=O)CC4)cn3)nc2n(C2CCCC2)c1=O [BSJ-03-123]
# [3] = compound: CC(C)n1nc(-c2ccc3oc(N)nc3c2)c2c(N)ncnc21 [INK128/MLN0128]
# [4] = compound: CCN1CCN(Cc2ccc(Nc3ncc(F)c(-c4cc(F)c5nc(C)n(C(C)C)c5c4)n3)nc2)CC1
# [5] = compound: T2, CCOc1cc2ncc(C#N)c(Nc3ccc(OCc4ccccn4)c(Cl)c3)c2cc1NC(=O)/C=C/CN(C)C [Neratinib/HKI272]
# [6] = compound: CC[C@@H]1C(=O)N(C)c2cnc(Nc3ccc(C(=O)N[C@H]4CC[C@H](N5CCN(CC6CC6)CC5)CC4)cc3OC)nc2N1C(C)C [Volasertib/BI6727]
# [7] = compound: T3, CN(C)C(=O)c1cc2cnc(Nc3ccc(N4CCNCC4)cn3)nc2n1C1CCCC1 [LEE011/Ribociclib]
# [8] = compound: CN(C)C/C=C/C(=O)Nc1ccc(C(=O)N2CCC[C@@H](Nc3ncc(Cl)c(-c4c[nH]c5ccccc45)n3)C2)cc1 [THZ531]
# [9] = compound: CN(C)CC[C@H](CSc1ccccc1)Nc1ccc(S(=O)(=O)NC(=O)c2ccc(N3CCN(Cc4ccccc4-c4ccc(Cl)cc4)CC3)cc2)cc1[N+](=O)[O-] [ABT-737]
# [10] = compound: COc1ccc2c(c1)[C@]1(C[C@H]1c1ccc3c(/C=C/c4ccc(CN5C[C@@H](C)O[C@@H](C)C5)cc4)n[nH]c3c1)C(=O)N2
# [11] = compound: CS(=O)(=O)N1CCN(Cc2cc3nc(-c4cccc5[nH]ncc45)nc(N4CCOCC4)c3s2)CC1 [Pictilisib/GDC0941]
# [12] = compound: Cc1cc(Nc2ncc(Cl)c(Nc3ccccc3S(=O)(=O)C(C)C)n2)c(OC(C)C)cc1C1CCNCC1 [Ceritinib/LDK378]
# [13] = compound: Cc1nc(-c2cn3c(n2)-c2ccc(-c4cnn(C(C)(C)C(N)=O)c4)cc2OCC3)n(C(C)C)n1 [Taselisib/GDC0032]
# [14] = compound: O=C1NC(=O)[C@@H](c2cn3c4c(cccc24)CCC3)[C@@H]1c1c[nH]c2ccccc12 [Tivantinib/ARQ197]
# [15] = compound: C=CC(=O)Nc1ccc(C(=O)Nc2[nH]nc3c2CN(C(=O)N[C@H](CN(C)C)c2ccccc2)C3(C)C)cc1 [YKL-5-124]; assay: GR value, 72 h; higher = faster growth (1 = untreated, <0 = killing);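 also: breast cancer and non-malignant breast epithelial lines, nine half-log doses, viable cells counted by Hoechst and LIVE/DEAD dye imaging versus time-zero plates and DMSO controls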
# [16] = compound: T1, BSJ-03-123; assay: as above
# [17] = compound: CCN1CCN(Cc2ccc(Nc3ncc(F)c(-c4cc(F)c5nc(C)n(C(C)C)c5c4)n3)nc2)CC1; assay: as above
# [18] = compound: T2, Neratinib/HKI272; assay: as above
# [19] = compound: CCc1cnn2c(NCc3ccc[n+]([O-])c3)cc(N3CCCC[C@H]3CCO)nc12; assay: as above
# [20] = compound: T3, LEE011/Ribociclib; assay: as above
# 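For GR50, 72 h in this document: breast cancer and non-malignant breast epithelial cell lines, Deep Dye Drop or Dye Drop imaging, nine half-log doses, GR normalized to time-zero plates and DMSO-only controls.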
cell line,measurement,setting,value
HS578T,"GR50, 72 h",[1],0.00102 µM
same,"GR50, 72 h",[2],1.45 µM
same,"GR50, 72 h",[3],0.00906 µM
same,"GR50, 72 h",[4],0.0776 µM
same,"GR50, 72 h",[5],0.644 µM
same,"GR50, 72 h",[6],0.00257 µM
same,"GR50, 72 h",[7],2.33 µM
same,"GR50, 72 h",[8],0.0496 µM
same,"GR50, 72 h",[9],> 10 µM
same,"GR50, 72 h",[10],0.00238 µM
same,"GR50, 72 h",[11],1.16 µM
same,"GR50, 72 h",[12],0.965 µM
same,"GR50, 72 h",[13],0.575 µM
same,"GR50, 72 h",[14],0.337 µM
same,GR value,[15]; 0.001 µM,0.455 GR
same,GR value,[15]; 0.003162 µM,0.364 GR
same,GR value,[15]; 0.01 µM,0.311 GR
same,GR value,[15]; 0.03162 µM,0.239 GR
same,GR value,[15]; 0.1 µM,0.242 GR
same,GR value,[15]; 0.3162 µM,0.195 GR
same,GR value,[15]; 1 µM,0.167 GR
same,GR value,[15]; 3.162 µM,0.0237 GR
same,GR value,[15]; 10 µM,-0.462 GR
same,GR value,[16]; 0.001 µM,0.971 GR
same,GR value,[16]; 0.003162 µM,0.905 GR
same,GR value,[16]; 0.01 µM,0.883 GR
same,GR value,[16]; 0.03162 µM,0.844 GR
same,GR value,[16]; 0.1 µM,0.79 GR
same,GR value,[16]; 0.3162 µM,0.74 GR
same,GR value,[16]; 1 µM,0.626 GR
same,GR value,[16]; 3.162 µM,0.521 GR
same,GR value,[16]; 10 µM,-0.29 GR
same,GR value,[17]; 0.001 µM,0.969 GR
same,GR value,[17]; 0.003162 µM,0.776 GR
same,GR value,[17]; 0.01 µM,0.699 GR
same,GR value,[17]; 0.03162 µM,0.521 GR
same,GR value,[17]; 0.1 µM,0.442 GR
same,GR value,[17]; 0.3162 µM,0.268 GR
same,GR value,[17]; 1 µM,0.217 GR
same,GR value,[17]; 3.162 µM,-0.238 GR
same,GR value,[17]; 10 µM,-0.576 GR
same,GR value,[18]; 0.0003162 µM,1.06 GR
same,GR value,[18]; 0.001 µM,1 GR
same,GR value,[18]; 0.003162 µM,1.05 GR
same,GR value,[18]; 0.01 µM,0.98 GR
same,GR value,[18]; 0.03162 µM,1 GR
same,GR value,[18]; 0.1 µM,0.888 GR
same,GR value,[18]; 0.3162 µM,0.613 GR
same,GR value,[18]; 1 µM,0.427 GR
same,GR value,[18]; 3.162 µM,-0.155 GR
same,GR value,[19]; 0.0001 µM,0.955 GR
same,GR value,[19]; 0.0003162 µM,1.04 GR
same,GR value,[19]; 0.001 µM,0.986 GR
same,GR value,[19]; 0.003162 µM,1.02 GR
same,GR value,[19]; 0.01 µM,0.313 GR
same,GR value,[19]; 0.03162 µM,-0.21 GR
same,GR value,[19]; 0.1 µM,-0.191 GR
same,GR value,[19]; 0.3162 µM,-0.216 GR
same,GR value,[19]; 1 µM,-0.237 GR
same,GR value,[20]; 0.001 µM,0.825 GR
same,GR value,[20]; 0.003162 µM,0.861 GR
same,GR value,[20]; 0.01 µM,0.73 GR
same,GR value,[20]; 0.03162 µM,0.672 GR
same,GR value,[20]; 0.1 µM,0.63 GR
same,GR value,[20]; 0.3162 µM,0.621 GR
same,GR value,[20]; 1 µM,0.591 GR
same,GR value,[20]; 3.162 µM,0.513 GR
same,GR value,[20]; 10 µM,0.373 GR
SUM44PE,"GR50, 72 h",[1],0.00153 µM
same,"GR50, 72 h",[2],0.818 µM
same,"GR50, 72 h",[3],0.0102 µM
same,"GR50, 72 h",[4],0.0473 µM
same,"GR50, 72 h",[5],0.0248 µM
same,"GR50, 72 h",[6],0.00884 µM
same,"GR50, 72 h",[7],2.54 µM
same,"GR50, 72 h",[8],0.0499 µM
same,"GR50, 72 h",[9],4.3 µM
same,"GR50, 72 h",[10],0.000792 µM
same,"GR50, 72 h",[11],0.435 µM
same,"GR50, 72 h",[12],2.56 µM
same,"GR50, 72 h",[13],0.00347 µM
same,"GR50, 72 h",[14],0.0449 µM
same,GR value,[15]; 0.001 µM,-0.181 GR
same,GR value,[15]; 0.003162 µM,0.0065 GR
same,GR value,[15]; 0.01 µM,-0.018 GR
same,GR value,[15]; 0.03162 µM,-0.112 GR
same,GR value,[15]; 0.1 µM,-0.198 GR
same,GR value,[15]; 0.3162 µM,-0.167 GR
same,GR value,[15]; 1 µM,-0.274 GR
same,GR value,[15]; 3.162 µM,-0.448 GR
same,GR value,[16]; 0.001 µM,0.917 GR
same,GR value,[16]; 0.003162 µM,0.854 GR
same,GR value,[16]; 0.01 µM,0.911 GR
same,GR value,[16]; 0.03162 µM,0.8 GR
same,GR value,[16]; 0.1 µM,0.722 GR
same,GR value,[16]; 0.3162 µM,0.669 GR
same,GR value,[16]; 1 µM,0.45 GR
same,GR value,[16]; 3.162 µM,0.337 GR
same,GR value,[17]; 0.001 µM,0.905 GR
same,GR value,[17]; 0.003162 µM,0.922 GR
same,GR value,[17]; 0.01 µM,0.666 GR
same,GR value,[17]; 0.03162 µM,0.413 GR
same,GR value,[17]; 0.1 µM,0.251 GR
same,GR value,[17]; 0.3162 µM,0.237 GR
same,GR value,[17]; 1 µM,0.201 GR
same,GR value,[17]; 3.162 µM,0.134 GR
same,GR value,[17]; 10 µM,-0.763 GR
same,GR value,[18]; 0.0003162 µM,0.966 GR
same,GR value,[18]; 0.001 µM,0.921 GR
same,GR value,[18]; 0.003162 µM,0.764 GR
same,GR value,[18]; 0.01 µM,0.465 GR
same,GR value,[18]; 0.03162 µM,0.417 GR
same,GR value,[18]; 0.1 µM,0.312 GR
same,GR value,[18]; 0.3162 µM,0.209 GR
same,GR value,[18]; 1 µM,0.0292 GR
same,GR value,[18]; 3.162 µM,-0.218 GR
same,GR value,[19]; 0.0001 µM,0.983 GR
same,GR value,[19]; 0.0003162 µM,1.03 GR
same,GR value,[19]; 0.001 µM,1.08 GR
same,GR value,[19]; 0.003162 µM,0.918 GR
same,GR value,[19]; 0.01 µM,0.257 GR
same,GR value,[19]; 0.03162 µM,-0.925 GR
same,GR value,[20]; 0.001 µM,0.854 GR
same,GR value,[20]; 0.003162 µM,0.783 GR
same,GR value,[20]; 0.01 µM,0.676 GR
same,GR value,[20]; 0.03162 µM,0.637 GR
same,GR value,[20]; 0.1 µM,0.663 GR
same,GR value,[20]; 0.3162 µM,0.636 GR
same,GR value,[20]; 1 µM,0.55 GR
same,GR value,[20]; 3.162 µM,0.545 GR
same,GR value,[20]; 10 µM,0.378 GR
